Laboratory results: ChEMBL document CHEMBL1909046, “DrugMatrix in vitro pharmacology data”

Tests used:
[1] = target: T1, Alpha-1D adrenergic receptor (Homo sapiens, UniProt P25100); assay type: cell membranes, HEK293, Membrane; conditions: hek293; also: in other assays of this panel Not Active means under 50% inhibition at 10 µM
T1 sequence (P25100 whole entry): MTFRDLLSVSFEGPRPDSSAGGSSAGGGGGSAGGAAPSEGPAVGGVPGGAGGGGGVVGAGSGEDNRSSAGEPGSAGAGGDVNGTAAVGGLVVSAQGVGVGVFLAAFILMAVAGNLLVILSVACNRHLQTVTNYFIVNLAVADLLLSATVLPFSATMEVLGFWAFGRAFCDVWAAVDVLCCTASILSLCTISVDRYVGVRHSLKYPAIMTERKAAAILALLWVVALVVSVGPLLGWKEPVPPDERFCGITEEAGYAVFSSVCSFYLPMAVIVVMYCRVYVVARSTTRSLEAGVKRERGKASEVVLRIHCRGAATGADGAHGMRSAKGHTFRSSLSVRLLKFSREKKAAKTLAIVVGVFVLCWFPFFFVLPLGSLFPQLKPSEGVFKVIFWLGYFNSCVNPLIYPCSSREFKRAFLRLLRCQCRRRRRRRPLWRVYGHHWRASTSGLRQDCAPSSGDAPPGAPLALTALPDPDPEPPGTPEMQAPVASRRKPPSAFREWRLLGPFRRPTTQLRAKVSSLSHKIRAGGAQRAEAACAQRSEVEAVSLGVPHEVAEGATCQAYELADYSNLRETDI

[2] = target: Beta-1 adrenergic receptor (Homo sapiens, UniProt P08588); test: DRUGMATRIX: Adrenergic beta1 radioligand binding (ligand: [125I] Cyanopindolol); assay type: cell membranes, CHO-K1, Membrane; conditions: cho-k1; Not Active = under 50% inhibition at 10 µM
Beta-1 adrenergic receptor, sequence (P08588 whole entry): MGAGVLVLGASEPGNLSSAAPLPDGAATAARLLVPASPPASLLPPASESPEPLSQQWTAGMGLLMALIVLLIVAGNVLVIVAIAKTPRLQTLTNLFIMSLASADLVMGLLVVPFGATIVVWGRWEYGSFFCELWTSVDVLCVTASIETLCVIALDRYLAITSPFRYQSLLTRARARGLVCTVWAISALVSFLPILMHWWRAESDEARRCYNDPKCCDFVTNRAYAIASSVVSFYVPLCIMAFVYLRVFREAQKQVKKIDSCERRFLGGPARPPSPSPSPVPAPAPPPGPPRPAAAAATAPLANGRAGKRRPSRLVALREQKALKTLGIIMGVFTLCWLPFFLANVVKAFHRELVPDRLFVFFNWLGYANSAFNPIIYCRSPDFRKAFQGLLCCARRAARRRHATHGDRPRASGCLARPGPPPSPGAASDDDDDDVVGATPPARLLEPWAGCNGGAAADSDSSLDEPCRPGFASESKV

Thromboxane-A synthase = target: T2, Thromboxane-A synthase (Homo sapiens, UniProt P24557); test: biochemical; assay type: tissue-based, Platelet; conditions: platelet;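 also: enzyme inhibition assay with PGH2 supplied as substrate; in other assays of this panel Not Active means under 50% inhibition at 10 µM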
T2 sequence (P24557 whole entry): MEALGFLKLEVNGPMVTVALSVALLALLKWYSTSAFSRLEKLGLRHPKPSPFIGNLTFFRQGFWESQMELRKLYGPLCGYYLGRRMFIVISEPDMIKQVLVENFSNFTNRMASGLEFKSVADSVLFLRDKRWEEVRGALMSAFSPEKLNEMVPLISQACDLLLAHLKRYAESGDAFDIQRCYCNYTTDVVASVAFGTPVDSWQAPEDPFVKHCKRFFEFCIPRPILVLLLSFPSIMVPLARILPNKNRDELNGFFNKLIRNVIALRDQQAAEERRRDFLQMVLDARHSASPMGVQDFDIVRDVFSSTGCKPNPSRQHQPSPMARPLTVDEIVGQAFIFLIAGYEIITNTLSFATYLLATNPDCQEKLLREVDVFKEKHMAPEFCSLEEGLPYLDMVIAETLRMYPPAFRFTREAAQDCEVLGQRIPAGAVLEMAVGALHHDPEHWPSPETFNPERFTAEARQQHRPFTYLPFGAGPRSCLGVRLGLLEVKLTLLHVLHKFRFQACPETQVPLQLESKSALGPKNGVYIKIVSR

[3] = target: T3, Cysteinyl leukotriene receptor 1 (Homo sapiens, UniProt Q9Y271); assay type: cell membranes, Membrane; conditions: cho-k1; also: in other assays of this panel Not Active means under 50% inhibition at 10 µM
T3 sequence (Q9Y271 whole entry): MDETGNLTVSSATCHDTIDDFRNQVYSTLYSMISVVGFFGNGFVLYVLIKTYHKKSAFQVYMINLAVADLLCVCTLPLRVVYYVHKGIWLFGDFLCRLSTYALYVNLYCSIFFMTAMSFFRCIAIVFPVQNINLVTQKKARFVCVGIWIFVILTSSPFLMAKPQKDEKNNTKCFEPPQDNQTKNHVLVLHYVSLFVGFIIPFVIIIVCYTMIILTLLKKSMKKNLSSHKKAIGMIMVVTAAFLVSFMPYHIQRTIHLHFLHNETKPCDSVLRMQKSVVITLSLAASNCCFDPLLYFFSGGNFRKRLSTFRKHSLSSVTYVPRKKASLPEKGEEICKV

[4] = DRUGMATRIX: Phosphodiesterase PDE3 enzyme inhibition (substrate: [3H]cAMP + cAMP); assay type: tissue-based, Homo sapiens; conditions: platelet, Not Active = under 50% inhibition at 10 µM
[5] = target: T4, Receptor-type tyrosine-protein phosphatase C (Homo sapiens, UniProt P08575); parameters: species or system Escherichia coli;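 also: inhibition of CD45 enzyme activity measured using DiFMUP as substrate; in other assays of this panel Not Active means under 50% inhibition at 10 µM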
T4 sequence (P08575 whole entry): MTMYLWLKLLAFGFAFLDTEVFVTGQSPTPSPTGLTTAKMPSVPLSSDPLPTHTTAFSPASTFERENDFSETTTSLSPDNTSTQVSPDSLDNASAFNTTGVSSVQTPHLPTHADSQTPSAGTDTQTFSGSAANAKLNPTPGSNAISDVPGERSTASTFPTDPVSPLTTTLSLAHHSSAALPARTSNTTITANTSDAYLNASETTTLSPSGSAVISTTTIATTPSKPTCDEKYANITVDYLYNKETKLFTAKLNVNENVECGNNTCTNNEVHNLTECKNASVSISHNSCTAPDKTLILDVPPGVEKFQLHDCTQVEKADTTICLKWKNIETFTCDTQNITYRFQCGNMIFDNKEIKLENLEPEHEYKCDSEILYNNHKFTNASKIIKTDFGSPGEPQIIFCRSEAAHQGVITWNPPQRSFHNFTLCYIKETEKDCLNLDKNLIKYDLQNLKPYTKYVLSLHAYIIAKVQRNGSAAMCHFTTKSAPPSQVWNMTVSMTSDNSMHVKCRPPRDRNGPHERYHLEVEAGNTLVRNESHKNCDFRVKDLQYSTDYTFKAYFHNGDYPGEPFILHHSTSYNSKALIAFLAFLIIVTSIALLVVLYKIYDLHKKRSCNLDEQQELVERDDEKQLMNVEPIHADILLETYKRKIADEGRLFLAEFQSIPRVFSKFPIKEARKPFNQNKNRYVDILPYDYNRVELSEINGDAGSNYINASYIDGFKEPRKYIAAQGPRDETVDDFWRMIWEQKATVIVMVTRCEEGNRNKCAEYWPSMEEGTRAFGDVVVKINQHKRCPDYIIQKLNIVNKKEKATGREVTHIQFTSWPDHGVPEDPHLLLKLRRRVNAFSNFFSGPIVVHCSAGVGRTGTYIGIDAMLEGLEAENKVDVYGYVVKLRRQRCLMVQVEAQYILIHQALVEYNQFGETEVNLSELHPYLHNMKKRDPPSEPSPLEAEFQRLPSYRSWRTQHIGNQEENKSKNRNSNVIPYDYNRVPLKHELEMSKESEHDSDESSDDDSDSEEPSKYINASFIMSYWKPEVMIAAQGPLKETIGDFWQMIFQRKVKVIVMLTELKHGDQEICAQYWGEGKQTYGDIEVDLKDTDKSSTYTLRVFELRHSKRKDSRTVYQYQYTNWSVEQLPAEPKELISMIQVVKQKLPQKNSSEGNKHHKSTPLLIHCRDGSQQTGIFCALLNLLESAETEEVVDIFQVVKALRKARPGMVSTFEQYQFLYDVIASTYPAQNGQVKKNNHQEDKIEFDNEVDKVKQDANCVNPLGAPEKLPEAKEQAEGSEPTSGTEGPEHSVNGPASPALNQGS

| SMILES | IC50 [1] | IC50 [2] | IC50 (Thromboxane-A synthase) | IC50 [3] | IC50 [4] | Ki [4] | IC50 [5] | IC50 ([4]; read-out: IC50) [nM] | Ki [1] |
| --- | --- | --- | --- | --- | --- | --- | --- | --- | --- |
| CS(=O)(=O)OCCCCOS(C)(=O)=O [BUSULFAN] | Not Active | Not Active | Not Active | Not Active | Not Active | Not Active | Not Active |  |  |
| O=C(/C=C/c1ccc(O)c(O)c1)OCCc1ccccc1 [CAFFEIC ACID PHENETHYL ESTER] | Not Active | Not Active | Not Active | Not Active | Not Active | Not Active | Not Active |  |  |
| COc1cc(CNC(=O)CCCC/C=C/C(C)C)ccc1O [CAPSAICIN] | Not Active | Not Active | Not Active | Not Active | Not Active | Not Active | Not Active |  |  |
| NC(=O)N1c2ccccc2C=Cc2ccccc21 [CARBAMAZEPINE] | Not Active | Not Active | Not Active | Not Active | Not Active | Not Active | Not Active |  |  |
| CCOC(=O)n1ccn(C)c1=S [CARBIMAZOLE] | Not Active | Not Active | Not Active | Not Active | Not Active | Not Active | Not Active |  |  |
| Oc1ccccc1O [CATECHOL] | Not Active | Not Active | Not Active | Not Active | Not Active | Not Active | Not Active |  |  |
| CO[C@@]1(NC(=O)CSCC#N)C(=O)N2C(C(=O)O)=C(CSc3nnnn3C)CS[C@@H]21 [CEFMETAZOLE] | Not Active | Not Active | Not Active | Not Active | Not Active | Not Active | Not Active |  |  |
| CN(C(=O)CCCOc1ccc2[nH]c(=O)ccc2c1)C1CCCCC1 [CILOSTAMIDE] | Not Active | Not Active | Not Active | Not Active |  |  | Not Active | 55 |  |
| CC(C)(Oc1ccc(C2CC2(Cl)Cl)cc1)C(=O)O (stereo not drawn) [CIPROFIBRATE] | Not Active | Not Active | Not Active | Not Active | Not Active | Not Active | Not Active |  |  |
| Nc1nc(Cl)nc2c1ncn2[C@H]1C[C@H](O)[C@@H](CO)O1 [CLADRIBINE] | Not Active | Not Active | Not Active | Not Active | Not Active | Not Active | Not Active |  |  |
| CC[C@H]1OC(=O)[C@H](C)[C@@H](O[C@H]2C[C@@](C)(OC)[C@@H](O)[C@H](C)O2)[C@H](C)[C@@H](O[C@@H]2O[C@H](C)C[C@H](N(C)C)[C@H]2O)[C@](C)(OC)C[C@@H](C)C(=O)[C@H](C)[C@@H](O)[C@]1(C)O [CLARITHROMYCIN] | Not Active | Not Active | Not Active | Not Active | Not Active | Not Active | Not Active |  |  |
| CCC[C@@H]1C[C@@H](C(=O)N[C@@H]([C@H]2O[C@H](SC)[C@H](O)[C@@H](O)[C@H]2O)[C@H](C)Cl)N(C)C1 [CLINDAMYCIN] | Not Active | Not Active | Not Active | Not Active | Not Active | Not Active | Not Active |  |  |
| O=C(O)c1cc(=O)c2c(OCC(O)COc3cccc4oc(C(=O)O)cc(=O)c34)cccc2o1 [CROMOLYN] | Not Active | Not Active | Not Active | Not Active | Not Active | Not Active | Not Active |  |  |
| O=P1(N(CCCl)CCCl)NCCCO1 (stereo not drawn) [CYCLOPHOSPHAMIDE ANHYDROUS] | Not Active | Not Active | Not Active | Not Active | Not Active | Not Active | Not Active |  |  |
| CC(=O)O[C@]1(C(C)=O)CC[C@H]2[C@@H]3C=C(Cl)C4=CC(=O)[C@@H]5C[C@@H]5[C@]4(C)[C@H]3CC[C@@]21C [CYPROTERONE ACETATE] |  | Not Active | Not Active | Not Active | Not Active | Not Active | Not Active |  | Not Active |
| Nc1nc(N)nc(NC2CC2)n1 [CYROMAZINE] | Not Active | Not Active | Not Active | Not Active | Not Active | Not Active | Not Active |  |  |
| C#C[C@]1(O)CC[C@H]2[C@@H]3CCC4=Cc5oncc5C[C@]4(C)[C@H]3CC[C@@]21C [DANAZOL] | Not Active | Not Active | Not Active | Not Active |  |  | Not Active | 2540 |  |
| CCN[C@@H](C)Cc1cccc(C(F)(F)F)c1 [DEXFENFLURAMINE] | Not Active | Not Active | Not Active | Not Active | Not Active | Not Active | Not Active |  |  |
| C[C@H](C(=O)O)c1cccc(C(=O)c2ccccc2)c1 [DEXKETOPROFEN] | Not Active | Not Active | Not Active | Not Active | Not Active | Not Active | Not Active |  |  |
| CN1C(=O)CN=C(c2ccccc2)c2cc(Cl)ccc21 [DIAZEPAM] | Not Active | Not Active | Not Active | Not Active | Not Active | Not Active | Not Active |  |  |
